Experimental data as given in US9809623B2, “α4β7 peptide monomer and dimer antagonists” (Protagonist Therapeutics, Inc., priority 2014, dated 2017).
Read-outs that look alike come from different tables or passages of the source. Numbered stars: 1 amine (or outer) side, 2 acyl side, 3 side chain; on linkers, the order of the positions; unused ones are H or OH. Bridge positions count the residues as written; N and C are the ends. Square brackets hold non-standard residues; d marks the D form. Peptide text beside a SMILES is read from it. I, II: the chains in the order shown. ξ: configuration not given here. Phe(4-tBu) = CC(C)(C)c1ccc(C[C@H](N)C(=O)O)cc1; 2Nal = N[C@@H](Cc1ccc2ccccc2c1)C(=O)O; Diglycolyl = O=C(COCC(=O)[*:2])[*:1]; NMeR = CN[C@@H](CCCNC(=N)N)C(=O)O; β3hE = N[C@@H](CCC(=O)O)CC(=O)O; Thr(3ξ) = CC(O)[C@H](N)C(=O)O; Pen = CC(C)(S)[C@H](N)C(=O)O

Key:
[1] = Simulated Gastric Fluid (SGF) Assay; type: in vitro ADME; details: pig, simulated gastric fluid (SGF) with porcine pepsin, pH 2; Table 4-C, t1/2
Method: SGF was prepared by adding 20 mg NaCl, 32 mg porcine pepsin (MP Biochemicals, catalog 02102599), and 70 μl HCl to 10 ml water (final pH=2). Aliquots of SGF (0.5 ml each) were pre-warmed at 37° C. For each peptide tested, to start the reaction, 1 μl of peptide stock solution (10 mM in DMSO) was added to 0.5 ml SGF and thoroughly mixed such that the final peptide concentration was 20 μM. The reactions were incubated at 37° C. with gentle shaking. At each time point (0, 15, 30, 60 min), 50 μl aliquots were removed and added to 200 ul acetonitrile containing 0.1% formic acid to quench the reaction. Samples were stored at 4° C. until the end of the experiment and centrifuged at 10,000 rpm for 5 minutes. Aliquots of the supernatant were removed, diluted 1:1 into distilled water containing internal standard, and analyzed by LCMS/MS. Percent remaining at each timepoint was calculated based on the peak area response ratio of test compound to internal standard. Time 0 was set to 100%, and all later timepoints were calculated relative to time 0. Half-lives were calculated by fitting to a first-order exponential decay equation using GraphPad.

[2] = molecular target: T1, α4β1 (Homo sapiens, UniProt P05556+P13612, DEL729-798); assay: α4β1-VCAM Competition ELISA; type: binding
T1 construct: purchased R&D Systems 5668-A4
Outline: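 Recombinant α4β1 (60 nM final) competed with serially diluted peptides (top final 100 μM) for VCAM-1 Fc coated at 400 ng/well, in Tris pH 7.6 with 1 mM MnCl2 or MgCl2, for 2 h at 37 °C. Bound integrin was detected with anti-CD49d 9F10 plus HRP anti-mouse IgG, using TMB read at 450 nm.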

[3] = molecular target: α4β7 (Homo sapiens, UniProt P13612+P26010); assay: PBMC Memory T Cell Adhesion Assay, adhesion to MAdCAM-1; type: cell-based
Outline: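 Fresh human CD4+/CD45RO+ memory T cells in binding medium with 1 mM MnCl2 were preincubated with compound for 1.5 h at 37° C. on plates coated with Fc-captured MAdCAM-1 (400 ng/well). Adherent cells were read by fluorescence (Ex 485/Em 530). IC50 came from four-parameter nonlinear regression of RFU versus log concentration.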

[4] = Table 4-B, read-out: ELISA_α4β1 IC50

T1 sequence (P13612 34-977 limits assumed, stated change not applied): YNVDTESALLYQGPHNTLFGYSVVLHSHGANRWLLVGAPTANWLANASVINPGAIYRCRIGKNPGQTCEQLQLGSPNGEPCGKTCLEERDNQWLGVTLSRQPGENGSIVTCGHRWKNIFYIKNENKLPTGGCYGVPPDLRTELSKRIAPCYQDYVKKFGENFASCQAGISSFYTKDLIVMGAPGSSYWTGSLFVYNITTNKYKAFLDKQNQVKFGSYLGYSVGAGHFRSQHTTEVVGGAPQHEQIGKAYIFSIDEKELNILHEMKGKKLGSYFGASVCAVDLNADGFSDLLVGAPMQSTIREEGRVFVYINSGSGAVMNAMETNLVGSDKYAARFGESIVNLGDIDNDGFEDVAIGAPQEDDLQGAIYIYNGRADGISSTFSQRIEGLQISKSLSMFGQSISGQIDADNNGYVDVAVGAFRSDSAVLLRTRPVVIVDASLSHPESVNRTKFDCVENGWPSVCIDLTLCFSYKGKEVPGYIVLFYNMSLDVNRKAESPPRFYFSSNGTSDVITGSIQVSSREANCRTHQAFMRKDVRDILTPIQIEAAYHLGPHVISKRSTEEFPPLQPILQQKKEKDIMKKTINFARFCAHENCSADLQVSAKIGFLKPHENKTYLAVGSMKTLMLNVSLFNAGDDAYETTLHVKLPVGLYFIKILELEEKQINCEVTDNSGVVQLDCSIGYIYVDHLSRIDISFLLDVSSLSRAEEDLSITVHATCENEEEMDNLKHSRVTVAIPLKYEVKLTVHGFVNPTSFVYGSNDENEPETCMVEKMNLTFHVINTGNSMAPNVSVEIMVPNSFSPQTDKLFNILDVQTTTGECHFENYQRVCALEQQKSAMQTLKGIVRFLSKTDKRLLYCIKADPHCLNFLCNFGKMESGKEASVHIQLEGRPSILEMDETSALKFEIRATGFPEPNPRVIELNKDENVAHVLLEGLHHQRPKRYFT
T1 sequence (P05556 21-728 limits assumed, stated change not applied): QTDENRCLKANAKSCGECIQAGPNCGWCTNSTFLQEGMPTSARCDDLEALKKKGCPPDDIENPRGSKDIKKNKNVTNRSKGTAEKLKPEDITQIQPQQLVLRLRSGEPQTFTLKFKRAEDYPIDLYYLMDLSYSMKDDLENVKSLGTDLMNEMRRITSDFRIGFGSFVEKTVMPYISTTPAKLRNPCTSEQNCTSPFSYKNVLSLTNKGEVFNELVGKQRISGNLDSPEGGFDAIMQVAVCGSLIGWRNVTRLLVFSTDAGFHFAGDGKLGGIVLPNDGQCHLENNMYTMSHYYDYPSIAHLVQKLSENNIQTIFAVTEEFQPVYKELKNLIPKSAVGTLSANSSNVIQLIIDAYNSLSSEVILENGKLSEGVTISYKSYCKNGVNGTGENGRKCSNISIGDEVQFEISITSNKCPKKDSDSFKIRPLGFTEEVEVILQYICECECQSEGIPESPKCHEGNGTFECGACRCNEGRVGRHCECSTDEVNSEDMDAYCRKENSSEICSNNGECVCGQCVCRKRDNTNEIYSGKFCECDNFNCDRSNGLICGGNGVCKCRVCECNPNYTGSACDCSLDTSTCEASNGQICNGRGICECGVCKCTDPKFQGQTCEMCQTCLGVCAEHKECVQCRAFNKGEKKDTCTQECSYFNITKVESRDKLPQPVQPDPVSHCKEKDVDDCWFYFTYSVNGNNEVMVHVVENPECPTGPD
Chain of α4β7 (P13612 34-1032): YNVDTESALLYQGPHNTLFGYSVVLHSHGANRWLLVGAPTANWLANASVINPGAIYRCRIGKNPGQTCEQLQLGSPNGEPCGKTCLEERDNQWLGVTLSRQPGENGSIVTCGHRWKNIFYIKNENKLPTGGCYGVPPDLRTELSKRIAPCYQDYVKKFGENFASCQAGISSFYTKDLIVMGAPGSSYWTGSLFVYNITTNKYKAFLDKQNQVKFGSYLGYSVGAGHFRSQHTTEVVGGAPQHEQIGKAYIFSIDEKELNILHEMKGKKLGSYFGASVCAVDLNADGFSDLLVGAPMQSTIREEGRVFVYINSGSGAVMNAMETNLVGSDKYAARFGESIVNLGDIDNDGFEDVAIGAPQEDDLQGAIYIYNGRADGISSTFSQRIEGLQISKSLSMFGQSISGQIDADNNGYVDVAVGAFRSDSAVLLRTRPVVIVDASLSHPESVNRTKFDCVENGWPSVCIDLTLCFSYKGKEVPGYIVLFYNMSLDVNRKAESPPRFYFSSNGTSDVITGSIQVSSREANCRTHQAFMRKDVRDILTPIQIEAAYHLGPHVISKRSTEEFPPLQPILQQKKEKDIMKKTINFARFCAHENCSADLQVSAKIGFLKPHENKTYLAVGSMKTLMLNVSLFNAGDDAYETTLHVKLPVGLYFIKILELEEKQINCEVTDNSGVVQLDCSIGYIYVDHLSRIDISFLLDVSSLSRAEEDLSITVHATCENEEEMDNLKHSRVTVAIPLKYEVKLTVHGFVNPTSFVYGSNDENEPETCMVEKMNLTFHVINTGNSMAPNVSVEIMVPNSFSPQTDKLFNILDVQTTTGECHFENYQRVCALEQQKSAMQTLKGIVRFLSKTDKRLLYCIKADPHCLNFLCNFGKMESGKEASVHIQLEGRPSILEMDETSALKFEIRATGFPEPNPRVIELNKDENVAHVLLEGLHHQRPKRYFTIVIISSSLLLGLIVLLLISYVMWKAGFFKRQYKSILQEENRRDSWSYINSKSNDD
Chain of α4β7 (P26010 20-798): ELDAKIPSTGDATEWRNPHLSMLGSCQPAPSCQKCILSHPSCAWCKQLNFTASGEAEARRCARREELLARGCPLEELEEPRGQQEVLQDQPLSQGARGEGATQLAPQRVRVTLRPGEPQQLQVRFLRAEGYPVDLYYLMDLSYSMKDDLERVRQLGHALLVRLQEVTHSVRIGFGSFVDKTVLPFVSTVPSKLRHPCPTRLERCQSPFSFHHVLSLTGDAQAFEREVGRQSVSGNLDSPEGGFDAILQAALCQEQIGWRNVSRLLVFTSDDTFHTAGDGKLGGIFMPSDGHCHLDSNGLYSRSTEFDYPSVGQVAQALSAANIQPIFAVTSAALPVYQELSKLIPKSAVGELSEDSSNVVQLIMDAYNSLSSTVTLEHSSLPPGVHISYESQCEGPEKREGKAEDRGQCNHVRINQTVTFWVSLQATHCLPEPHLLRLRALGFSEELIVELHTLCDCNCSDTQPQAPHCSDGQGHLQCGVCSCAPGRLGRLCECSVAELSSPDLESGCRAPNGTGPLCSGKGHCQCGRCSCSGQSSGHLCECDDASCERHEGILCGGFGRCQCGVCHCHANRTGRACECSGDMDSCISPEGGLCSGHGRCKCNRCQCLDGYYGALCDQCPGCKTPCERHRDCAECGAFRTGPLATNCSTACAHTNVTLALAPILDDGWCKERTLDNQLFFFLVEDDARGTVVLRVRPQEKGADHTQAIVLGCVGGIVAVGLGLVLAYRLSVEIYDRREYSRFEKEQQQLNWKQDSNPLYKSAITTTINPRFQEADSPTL

| Structure (SMILES) | half-life at 20 μM [1] [h] | IC50 [2, 4] [µM] | further results |
| --- | --- | --- | --- |
| CC(=O)N[C@@H]1C(=O)N[C@@H](CCCNC(=N)N)C(=O)N[C@@H](CO)C(=O)N[C@@H](CC(=O)O)C(=O)N[C@@H]([C@@H](C)O)C(=O)N[C@@H](CC(C)C)C(=O)N[C@H](C(=O)N[C@H](CCCCNC(=O)COCC(=O)NCCCC[C@@H](NC(=O)[C@@H]2CSSC(C)(C)[C@H](NC(C)=O)C(=O)N[C@@H](CCCNC(=N)N)C(=O)N[C@@H](CO)C(=O)N[C@@H](CC(=O)O)C(=O)N[C@@H]([C@@H](C)O)C(=O)N[C@@H](CC(C)C)C(=O)N2)C(N)=O)C(N)=O)CSSC1(C)C [compound 207, (Ac-Pen-R-S-D-T-L-C-k-NH2)2-DIG] (I: Ac-[Pen]RSDTLC[dK]-NH2 / II: Ac-[Pen]RSDTLC[dK]-NH2; disulfide I:1-I:7, II:1-II:7 (inferred); linker I:8-II:8 via Diglycolyl (inferred)) | > 1 | – | – |
| CC(=O)N[C@@H]1C(=O)N(C)[C@@H](CCCNC(=N)N)C(=O)N[C@@H](CO)C(=O)N[C@@H](CC(=O)O)C(=O)N[C@@H]([C@@H](C)O)C(=O)N[C@@H](CC(C)C)C(=O)N[C@H](C(=O)N[C@@H](Cc2ccc3ccccc3c2)C(=O)N[C@@H](CCC(=O)O)C(=O)N[C@H](CCCCNC(=O)COCC(=O)NCCCC[C@@H](NC(=O)[C@H](CCC(=O)O)NC(=O)[C@H](Cc2ccc3ccccc3c2)NC(=O)[C@H]2NC(=O)[C@H](CC(C)C)NC(=O)[C@H]([C@@H](C)O)NC(=O)[C@H](CC(=O)O)NC(=O)[C@H](CO)NC(=O)[C@H](CCCNC(=N)N)N(C)C(=O)[C@@H](NC(C)=O)C(C)(C)SSC2(C)C)C(N)=O)C(N)=O)C(C)(C)SSC1(C)C [compound 212, (Ac-Pen-N-Me-R-S-D-T-L-Pen-2-Nal-E-k-NH2)2-DIG] (I: Ac-[Pen][NMeR]SDTL[Pen][2Nal]E[dK]-NH2 / II: Ac-[Pen][NMeR]SDTL[Pen][2Nal]E[dK]-NH2; disulfide I:1-I:7, II:1-II:7 (inferred); linker I:10-II:10 via Diglycolyl (inferred)) | 0.65 | 0.07 | – |
| CC(=O)N[C@@H]1C(=O)N(C)[C@@H](CCCNC(=N)N)C(=O)N[C@@H](CO)C(=O)N[C@@H](CC(=O)O)C(=O)N[C@@H]([C@@H](C)O)C(=O)N[C@@H](CC(C)C)C(=O)N[C@H](C(=O)N[C@@H](Cc2c[nH]c3ccccc23)C(=O)N[C@H](CCCCN)C(N)=O)C(C)(C)SSC1(C)C [compound 208, Ac-Pen-N-Me-R-S-D-T-L-Pen-W-k-NH2] (Ac-[Pen][NMeR]SDTL[Pen]W[dK]-NH2; disulfide 1-7) | > 6 | – | – |
| CC(=O)N[C@@H]1C(=O)N(C)[C@@H](CCCNC(=N)N)C(=O)N[C@@H](CO)C(=O)N[C@@H](CC(=O)O)C(=O)N[C@@H]([C@@H](C)O)C(=O)N[C@@H](CC(C)C)C(=O)N[C@H](C(=O)N[C@@H](Cc2c[nH]c3ccccc23)C(=O)N[C@H](CCC(=O)O)C(=O)N[C@H](CCCCNC(=O)COCC(=O)NCCCC[C@@H](NC(=O)[C@@H](CCC(=O)O)NC(=O)[C@H](Cc2c[nH]c3ccccc23)NC(=O)[C@H]2NC(=O)[C@H](CC(C)C)NC(=O)[C@H]([C@@H](C)O)NC(=O)[C@H](CC(=O)O)NC(=O)[C@H](CO)NC(=O)[C@H](CCCNC(=N)N)N(C)C(=O)[C@@H](NC(C)=O)C(C)(C)SSC2(C)C)C(N)=O)C(N)=O)C(C)(C)SSC1(C)C [compound 211, (Ac-Pen-N-Me-R-S-D-T-L-Pen-W-e-k-NH2)2-DIG] (I: Ac-[Pen][NMeR]SDTL[Pen]W[dE][dK]-NH2 / II: Ac-[Pen][NMeR]SDTL[Pen]W[dE][dK]-NH2; disulfide I:1-I:7, II:1-II:7 (inferred); linker I:10-II:10 via Diglycolyl (inferred)) | > 1 | 0.302 | – |
| CC(=O)N[C@@H]1C(=O)N(C)[C@@H](CCCNC(=N)N)C(=O)N[C@@H](CO)C(=O)N[C@@H](CC(=O)O)C(=O)N[C@@H]([C@@H](C)O)C(=O)N[C@@H](CC(C)C)C(=O)N[C@H](C(=O)N[C@@H](Cc2c[nH]c3ccccc23)C(=O)N[C@@H](CCC(=O)O)CC(=O)N[C@H](CCCCNC(=O)COCC(=O)NCCCC[C@@H](NC(=O)C[C@H](CCC(=O)O)NC(=O)[C@H](Cc2c[nH]c3ccccc23)NC(=O)[C@H]2NC(=O)[C@H](CC(C)C)NC(=O)[C@H]([C@@H](C)O)NC(=O)[C@H](CC(=O)O)NC(=O)[C@H](CO)NC(=O)[C@H](CCCNC(=N)N)N(C)C(=O)[C@@H](NC(C)=O)C(C)(C)SSC2(C)C)C(N)=O)C(N)=O)C(C)(C)SSC1(C)C [compound 213, [Ac-Pen-(N-Me-Arg)-Ser-Asp-Thr-Leu-Pen-Trp-(β-homoGlu)-(D-Lys)-NH2]2-DIG] (I: Ac-[Pen][NMeR]SDTL[Pen]W[β3hE][dK]-NH2 / II: Ac-[Pen][NMeR]SDTL[Pen]W[β3hE][dK]-NH2; disulfide I:1-I:7, II:1-II:7; linker I:10-II:10 via Diglycolyl) | > 3 | 0.539 | – |
| CC(=O)N[C@H]1CSSC[C@@H](C(=O)NCC(=O)N[C@@H](CCC(=O)O)C(=O)N[C@@H](CCCCN)C(=O)O)NC(=O)[C@H](CC(C)C)NC(=O)[C@H]([C@@H](C)O)NC(=O)[C@H](CC(=O)O)NC(=O)[C@H](CO)NC(=O)[C@H](CCCNC(=N)N)N(C)C1=O [compound 199, Ac-C-N-Me-R-S-D-T-L-C-G-E-K-OH] (Ac-C[NMeR]SDTLCGEK-OH; disulfide 1-7) | > 6 | > 100 | – |
| CC(=O)N[C@@H]1C(=O)N(C)[C@@H](CCCNC(=N)N)C(=O)N[C@@H](CO)C(=O)N[C@@H](CC(=O)O)C(=O)N[C@@H]([C@@H](C)O)C(=O)N[C@@H](CC(C)C)C(=O)N[C@H](C(=O)N[C@@H](Cc2c[nH]c3ccccc23)C(=O)N[C@@H](CCC(=O)O)C(=O)N[C@H](CCCCNC(=O)COCC(=O)NCCCC[C@@H](NC(=O)[C@H](CCC(=O)O)NC(=O)[C@H](Cc2c[nH]c3ccccc23)NC(=O)[C@H]2NC(=O)[C@H](CC(C)C)NC(=O)[C@H]([C@@H](C)O)NC(=O)[C@H](CC(=O)O)NC(=O)[C@H](CO)NC(=O)[C@H](CCCNC(=N)N)N(C)C(=O)[C@@H](NC(C)=O)C(C)(C)SSC2(C)C)C(N)=O)C(N)=O)C(C)(C)SSC1(C)C [compound 217, (Ac-Pen-N-Me-R-S-D-T-L-Pen-W-E-k-NH2)2-DIG] (I: Ac-[Pen][NMeR]SDTL[Pen]WE[dK]-NH2 / II: Ac-[Pen][NMeR]SDTL[Pen]WE[dK]-NH2; disulfide I:1-I:7, II:1-II:7 (inferred); linker I:10-II:10 via Diglycolyl (inferred)) | > 6 | 0.315 | – |
| CC(=O)N[C@H]1CSSC[C@@H](C(=O)NCC(=O)N[C@@H](CCC(=O)O)C(=O)N[C@@H](CCCCNC(=O)COCC(=O)NCCCC[C@H](NC(=O)[C@H](CCC(=O)O)NC(=O)CNC(=O)[C@@H]2CSSC[C@H](NC(C)=O)C(=O)N(C)[C@@H](CCCNC(=N)N)C(=O)N[C@@H](CO)C(=O)N[C@@H](CC(=O)O)C(=O)N[C@@H]([C@@H](C)O)C(=O)N[C@@H](CC(C)C)C(=O)N2)C(=O)O)C(=O)O)NC(=O)[C@H](CC(C)C)NC(=O)[C@H]([C@@H](C)O)NC(=O)[C@H](CC(=O)O)NC(=O)[C@H](CO)NC(=O)[C@H](CCCNC(=N)N)N(C)C1=O [compound 201, (Ac-C-N-Me-R-S-D-T-L-C-G-E-K-OH)2-DIG] (I: Ac-C[NMeR]SDTLCGEK-OH / II: Ac-C[NMeR]SDTLCGEK-OH; disulfide I:1-I:7, II:1-II:7 (inferred); linker I:10-II:10 via Diglycolyl (inferred)) | > 6 | 1.24 | – |
| CC(=O)N[C@@H]1C(=O)N(C)[C@@H](CCCNC(=N)N)C(=O)N[C@@H](CO)C(=O)N[C@@H](CC(=O)O)C(=O)N[C@@H](C(C)O)C(=O)N[C@@H](CC(C)C)C(=O)N[C@H](C(=O)N[C@@H](Cc2ccc(C(C)(C)C)cc2)C(=O)N[C@@H](CCC(=O)O)CC(=O)N[C@H](CCCCNC(=O)COCC(=O)NCCCC[C@@H](NC(=O)C[C@H](CCC(=O)O)NC(=O)[C@H](Cc2ccc(C(C)(C)C)cc2)NC(=O)[C@H]2NC(=O)[C@H](CC(C)C)NC(=O)[C@H](C(C)O)NC(=O)[C@H](CC(=O)O)NC(=O)[C@H](CO)NC(=O)[C@H](CCCNC(=N)N)N(C)C(=O)[C@@H](NC(C)=O)C(C)(C)SSC2(C)C)C(N)=O)C(N)=O)C(C)(C)SSC1(C)C (stereo partly drawn) [Peptide X, [Ac-Pen-(N-Me-Arg)-Ser-Asp-Thr-Leu-Pen-(Phe(4-tBu))-(β-homoGlu)-(D-Lys)]2-DIG] (I: Ac-[Pen][NMeR]SD[Thr(3ξ)]L[Pen][Phe(4-tBu)][β3hE][dK]-NH2 / II: Ac-[Pen][NMeR]SD[Thr(3ξ)]L[Pen][Phe(4-tBu)][β3hE][dK]-NH2; disulfide I:1-I:7, II:1-II:7; linker I:10-II:10 via Diglycolyl) | – | – | IC50 ([3]; average, cells isolated from 4 different human PBMC donors, read-out: IC50 (nM), memory T cells, Integrin α4β7, Ligand MAdCAM-1): 1.3 nM; IC50 ([3]; read-out: IC50 for α4β7 T cells): 1 nM; IC50 ([2]; 1 mM Mg^2+ binding conditions, read-out: IC50 for α4β1, competition ELISA): > 10 µM; IC50 ([2]; b977, second statement, conditions not stated, read-out: IC50 for α4β1): > 100 µM |
